Measurements taken from patent publication US9617286B2, “Fungicide N-[(trisubstitutedsilyl)methyl]-carboxamide derivatives” (BAYER INTELLECTUAL PROPERTY GMBH, priority 2011, dated 2017).

Legend:
Sphaerotheca fuliginea = assay: In vivo preventive test on Sphaerotheca fuliginea (powdery mildew on cucurbits); settings: gherkin plants, preventive spray, 500 ppm of active ingredient, grading 12 days after contamination
Procedure: Gherkin plants (“Vert petit de Paris” variety), sown in starter cups on a 50/50 peat soil-pozzolana substrate and grown at 24° C., are treated at the Z11 cotyledon stage by spraying with the active ingredient prepared as described above. Plants, used as controls, are treated with the mixture of acetone/tween/DMSO/water not containing the active material. After 24 hours, the plants are contaminated by spraying the cotyledons with an aqueous suspension of Sphaerotheca fuliginea spores (100 000 spores per mL). The spores are collected from infected plants. The contaminated gherkin plants are incubated at about 20° C. and at 70-80% relative humidity. Grading (% of efficacy) is carried out 12 days after the contamination, in comparison with the control plants.

Puccinia recondita = assay: In vivo preventive test on Puccinia recondita (brown rust on wheat); settings: preventive spray, 500 ppm of active ingredient, grading 12 days after contamination
Procedure: Wheat plants (“Scipion” variety), sown in starter cups on a 50/50 peat soil pozzolana substrate and grown at 22° C., are treated at the 1 leaf stage (10 cm height) by spraying with the active ingredient prepared as described above. Plants, used as controls, are treated with the mixture of acetone/tween/DMSO/water not containing the active material. After 24 hours, the plants are contaminated by spraying the leaves with an aqueous suspension of Puccinia recondita spores (100 000 spores per mL). The spores are collected from an infected plant and are suspended in water containing 2.5 mL/L of Tween 80 at 10%. The contaminated wheat plants are incubated for 24 hours at 20° C. and at 100% relative humidity, and then for 10 days at 20° C. and at 70-80% relative humidity. Grading (% of efficacy) is carried out 12 days after the contamination, in comparison with the control plants.

Septoria tritici = assay: In vivo preventive test on Septoria tritici (wheat); settings: preventive spray, 500 ppm of active ingredient, grading 24 days after contamination
Procedure: Wheat plants (“Scipion” variety), sown in starter cups on a 50/50 peat soil pozzolana substrate and grown at 22° C., are treated at the 1 leaf stage (10 cm height) by spraying with the active ingredient prepared as described above. Plants, used as controls, are treated with the mixture of acetone/tween/DMSO/water not containing the active material. After 24 hours, the plants are contaminated by spraying the leaves with an aqueous suspension of cryopreserved Septoria tritici spores (500 000 spores per mL). The contaminated wheat plants are incubated for 72 hours at 18° C. and at 100% relative humidity, and then for 21 days at 90% relative humidity. Grading (% of efficacy) is carried out 24 days after the contamination, in comparison with the control plants.

Uromyces appendiculatus = assay: In vivo preventive test on Uromyces appendiculatus (bean rust); settings: bean plants, preventive spray, 500 ppm of active ingredient, grading 11 days after contamination
Procedure: Bean plants (“Saxa” variety), sown in starter cups on a 50/50 peat soil pozzolana substrate and grown at 24° C., are treated at the 2 leaf stage (9 cm height) by spraying with the active ingredient prepared as described above. Plants, used as controls, are treated with the mixture of acetone/tween/DMSO/water not containing the active material. After 24 hours, the plants are contaminated by spraying the leaves with an aqueous suspension of Uromyces appendiculatus spores (150 000 spores per mL). The spores are collected from infected plants and are suspended in water containing 2.5 mL/L of Tween 80 at 10%. The contaminated bean plants are incubated for 24 hours at 20° C. and at 100% relative humidity, and then for 10 days at 20° C. and at 70-80% relative humidity. Grading (% of efficacy) is carried out 11 days after the contamination, in comparison with the control plants.

Pyrenophora teres [1] = assay: In vivo preventive test on Pyrenophora teres (barley); settings: preventive spray (DMF/alkylaryl polyglycol ether), 500 ppm of active ingredient, evaluated 7-9 days after inoculation
Summary of the method: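 Young barley plants sprayed preventively with compound in DMF/emulsifier diluted in water, then inoculated one day later with aqueous P. teres spore suspension. Held 48 h at 22 °C and 100% relative humidity, then greenhouse at about 20 °C and 80% humidity.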

[2] = log P by HPLC on reversed-phase column (C 18), EEC Directive 79/831 Annex V.A8; format: physicochemical; settings: 40° C., 0.1% aqueous formic acid and acetonitrile, linear gradient 10% to 90% acetonitrile
Summary of the method: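 Reversed-phase C18 HPLC at 40° C, 0.1% aqueous formic acid/acetonitrile gradient from 10% to 90% acetonitrile. log P derived from retention times by linear interpolation between unbranched alkan-2-ones (3–16 carbons) of known log P.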

Alternaria solani = assay: In vivo preventive test on Alternaria solani (tomato); settings: preventive spray, 500 ppm of active ingredient, evaluated 7 days after inoculation
Procedure: Solvent: 49 parts by weight of N,N-dimethylformamide Emulsifier: 1 part by weight of alkylaryl polyglycol ether To produce a suitable preparation of active compound, 1 part by weight of active compound is mixed with the stated amounts of solvent and emulsifier, and the concentrate is diluted with water to the desired concentration. To test for preventive activity, young plants are sprayed with the preparation of active compound at the stated rate of application. One day after this treatment, the plants are inoculated with an aqueous spore suspension of Alternaria solani. The plants remain for one day in an incubation cabinet at approximately 22° C. and a relative atmospheric humidity of 100%. Then the plants are placed in an incubation cabinet at approximately 20° C. and a relative atmospheric humidity of 96%.

Botrytis cinerea = assay: In vivo preventive test on Botrytis cinerea (grey mould) - 2nd test; settings: gherkin plants, 2nd test (acetone/tween/DMSO), 500 ppm of active ingredient, grading 4 to 5 days after contamination
Procedure: Gherkin plants (“Vert petit de Paris” variety), sown in starter cups on a 50/50 peat soil pozzolana substrate and grown at 24° C., are treated at the Z11 cotyledon stage by spraying with the active ingredient prepared as described above. Plants, used as controls, are treated with the mixture of acetone/tween/DMSO/water not containing the active material. After 24 hours, the plants are contaminated by spraying the cotyledons with an aqueous suspension of cryopreserved Botrytis cinerea spores (50 000 spores per mL). The spores are suspended in a nutrient solution composed of 10 g/L of PDB, 50 g/L of D-Fructose, 2 g/L of NH4NO3 and 1 g/L of KH2PO4. The contaminated gherkin plants are incubated at 17° C. and at 90% relative humidity. Grading (% of efficacy) is carried out 4 to 5 days after the contamination, in comparison with the control plants.

Pyrenophora teres [3] = assay: In vivo preventive test on Pyrenophora teres (barley) - 2nd test; settings: 2nd test (acetone/tween/DMSO), 500 ppm of active ingredient, grading 14 days after contamination
Procedure: Barley plants (“Plaisant” variety), sown in starter cups on a 50/50 peat soil pozzolana substrate and grown at 22° C., are treated at the 1 leaf stage (10 cm height) by spraying with the active ingredient prepared as described above. Plants, used as controls, are treated with the mixture of acetone/tween/DMSO/water not containing the active material. After 24 hours, the plants are contaminated by spraying the leaves with an aqueous suspension of Pyrenophora teres spores (12 000 spores per mL). The spores are collected from a 12-day-old culture. The contaminated barley plants are incubated for 48 hours at 20° C. and at 100% relative humidity, and then for 12 days at 20° C. at 70-80% relative humidity. Grading (% of efficacy) is carried out 14 days after the contamination, in comparison with the control plants.

Alternaria brassicae = assay: In vivo preventive test on Alternaria brassicae (leaf spot on radish); settings: preventive spray, 500 ppm of active ingredient, grading 6 days after contamination
Procedure: Radish plants (“Pernod Clair” variety), sown in starter cups on a 50/50 peat soil pozzolana substrate and grown at 17° C., are treated at the cotyledon stage by spraying with the active ingredient prepared as described above. Plants, used as controls, are treated with the mixture of acetone/tween/DMSO/water not containing the active material. After 24 hours, the plants are contaminated by spraying the cotyledons with an aqueous suspension of Alternaria brassicae spores (50 000 spores per mL). The spores are collected from a 15-day-old culture. The contaminated radish plants are incubated at 20° C. and at 100% relative humidity. Grading (% of efficacy) is carried out 6 days after the contamination, in comparison with the control plants.

Pyricularia oryzae = format: in vivo; settings: rice, preventive spray, 500 ppm of active ingredient, grading 6 days after contamination
Leptosphaeria nodorum = assay: In vivo preventive test on Leptosphaeria nodorum (wheat); settings: preventive spray, 500 ppm of active ingredient, evaluated 7-9 days after inoculation
Procedure: Solvent: 49 parts by weight of N,N-dimethylformamide Emulsifier: 1 part by weight of alkylaryl polyglycol ether To produce a suitable preparation of active compound, 1 part by weight of active compound is mixed with the stated amounts of solvent and emulsifier, and the concentrate is diluted with water to the desired concentration. To test for preventive activity, young plants are sprayed with a preparation of active compound at the stated rate of application. One day after this treatment, the plants are inoculated with an aqueous spore suspension of Leptosphaeria nodorum. The plants remain for 48 hours in an incubation cabinet at 22° C. and a relative atmospheric humidity of 100%. Then the plants are placed in a greenhouse at a temperature of approximately 22° C. and a relative atmospheric humidity of approximately 90%.

Row | SMILES | Efficacy (Sphaerotheca fuliginea) [%] | Efficacy (Puccinia recondita) [%] | Efficacy (Septoria tritici) [%] | Efficacy (Uromyces appendiculatus) [%] | Efficacy (Pyrenophora teres [1]) [%] | chromatographic logP [2] | Efficacy (Alternaria solani) [%] | Efficacy (Botrytis cinerea) [%] | Efficacy (Pyrenophora teres [3]) [%] | logP [2] | Efficacy (Alternaria brassicae) [%] | Efficacy (Pyricularia oryzae) [%] | Efficacy (Leptosphaeria nodorum) [%]
1 | C[Si](C)(CNC(=O)c1cccnc1C(F)F)c1ccccc1 [Example 1, 2-(difluoromethyl)-N-{[dimethyl(phenyl)silyl]methyl}nicotinamide] | 98 | 88 | 100 | 100 | 90 | 2.71 | 95 | 89 | 79 | – | – | – | –
2 | C[Si](C)(CNC(=O)c1cccnc1C(F)F)c1ccccc1Cl [Example 22] | 78 | 100 | 96 | 96 | – | – | – | 92 | – | 3.06 | – | – | –
3 | CC1=C(C(=O)NC[Si](C)(C)c2ccccc2Cl)SCCO1 [Example 42] | – | 72 | 100 | – | – | – | – | – | 93 | 3.50 | – | – | –
4 | C[Si](C)(CN(C(=O)c1cccnc1C(F)F)C1CC1)c1ccc(F)cc1Cl [Example 45] | 83 | 75 | 80 | – | – | – | – | – | – | 3.96 | 90 | 83 | –
5 | C[Si](C)(CN(C(=O)c1cccnc1Cl)C1CC1)c1ccc(F)cc1Cl [Example 46] | – | – | – | – | – | – | – | – | – | 4.06 | – | 92 | –
6 | C[Si](C)(CN(C(=O)c1cccnc1C(F)F)C1CC1)c1ccc(Cl)cc1Cl [Example 62] | 79 | 92 | 100 | – | 100 | – | 94 | – | 93 | 4.51 | – | – | 70
